Data taken from the NIST ThermoML archive (doi:10.1016/j.jct.2016.04.003).
± gives the expanded uncertainty stated by the source.

Key:
[1] = xn = mol fraction of the nth substance listed; details: x2 = 0; for surface tension liquid-gas: Drop volume; for viscosity / speed of sound / mass density: 99 kPa, Liquid; for viscosity: Capillary tube (Ostwald / Ubbelohde) method; for speed of sound: Frequency=3 MHz, Sing-around technique in a fixed-path interferometer; for mass density: Vibrating tube method
[2] = refractive index (Na D-line) (dimensionless); xn = mol fraction of the nth substance listed; details: 99 kPa, Liquid, Standard Abbe refractometry, x2 = 0
[3] = refractive index (Na D-line) (dimensionless); details: 99 kPa, Liquid, Standard Abbe refractometry
[4] = for surface tension liquid-gas: Drop volume; for viscosity: Capillary tube (Ostwald / Ubbelohde) method

Work on O [water] + CCCC[n+]1ccccc1.F[B-](F)(F)F yielded a surface tension liquid-gas ([1]; 293.15 K) of 72.7 ± 0.8 mN/m, a viscosity ([1]; 293.15 K) of 1.002 ± 0.08 mPa·s and a surface tension liquid-gas ([1]; 303.15 K) of 71.1 ± 0.8 mN/m. It also gave a viscosity ([1]; 303.15 K) of 0.797 ± 0.064 mPa·s, a surface tension liquid-gas ([1]; 313.15 K) of 69.6 ± 0.7 mN/m and a viscosity ([1]; 313.15 K) of 0.653 ± 0.052 mPa·s. It also gave a speed of sound ([1]; 313.15 K) of 1529.2 ± 1.2 m/s, a surface tension liquid-gas ([1]; 323.15 K) of 67.8 ± 0.7 mN/m and a viscosity ([1]; 323.15 K) of 0.547 ± 0.044 mPa·s. It also gave a mass density ([1]; 323.15 K) of 988.04 ± 1 kg/m3, a refractive index ([2]; 293.15 K) of 1.33297 ± 0.00031 and a refractive index ([2]; 303.15 K) of 1.33196 ± 0.00031. It also gave a refractive index ([2]; 313.15 K) of 1.33061 ± 0.00031 and a refractive index ([2]; 323.15 K) of 1.32904 ± 0.00031.

For CCCC[n+]1ccccc1.F[B-](F)(F)F [1-butylpyridinium tetrafluoroborate], the refractive index ([3]; 293.15 K) was 1.44719 ± 0.00037.

For O [water], the surface tension liquid-gas ([4]; 293.15 K) was 72.7 ± 0.8 mN/m, the viscosity ([4]; 293.15 K, 99 kPa, Liquid) was 1.002 ± 0.08 mPa·s and the surface tension liquid-gas ([4]; 303.15 K) was 71.1 ± 0.8 mN/m. It also gave a viscosity ([4]; 303.15 K, 99 kPa, Liquid) of 0.797 ± 0.064 mPa·s, a surface tension liquid-gas ([4]; 313.15 K) of 69.6 ± 0.7 mN/m and a viscosity ([4]; 313.15 K, 99 kPa, Liquid) of 0.653 ± 0.052 mPa·s. For the same compound, the speed of sound ([4]; 313.15 K, 99 kPa, Liquid, Frequency=3 MHz, Sing-around technique in a fixed-path interferometer) was 1529.2 ± 1.2 m/s, the surface tension liquid-gas ([4]; 323.15 K) was 67.8 ± 0.7 mN/m and the viscosity ([4]; 323.15 K, 99 kPa, Liquid) was 0.547 ± 0.044 mPa·s. The mass density ([4]; 323.15 K, 99 kPa, Liquid, Vibrating tube method) was 988.04 ± 1 kg/m3, the refractive index ([3]; 293.15 K) was 1.33297 ± 0.00031 and the refractive index ([3]; 303.15 K) was 1.33196 ± 0.00031. The refractive index ([3]; 313.15 K) was 1.33061 ± 0.00031 and the refractive index ([3]; 323.15 K) was 1.32904 ± 0.00031.

O [water] + CCC[n+]1ccccc1.F[B-](F)(F)F showed a surface tension liquid-gas ([1]; 293.15 K) of 72.7 ± 0.8 mN/m, a viscosity ([1]; 293.15 K) of 1.002 ± 0.08 mPa·s and a surface tension liquid-gas ([1]; 303.15 K) of 71.1 ± 0.8 mN/m. It also gave a viscosity ([1]; 303.15 K) of 0.797 ± 0.064 mPa·s, a surface tension liquid-gas ([1]; 313.15 K) of 69.6 ± 0.7 mN/m and a viscosity ([1]; 313.15 K) of 0.653 ± 0.052 mPa·s. It also gave a speed of sound ([1]; 313.15 K) of 1529.2 ± 1.2 m/s, a surface tension liquid-gas ([1]; 323.15 K) of 67.8 ± 0.7 mN/m and a viscosity ([1]; 323.15 K) of 0.547 ± 0.044 mPa·s. For the same compound, the mass density ([1]; 323.15 K) was 988.04 ± 1 kg/m3, the refractive index ([2]; 293.15 K) was 1.33297 ± 0.00031 and the refractive index ([2]; 303.15 K) was 1.33196 ± 0.00031. For the same compound, the refractive index ([2]; 313.15 K) was 1.33061 ± 0.00031 and the refractive index ([2]; 323.15 K) was 1.32904 ± 0.00031.
